Consider 30 compounds from ChEMBL document CHEMBL1139339, “Alantrypinone and its derivatives: synthesis and antagonist activity toward insect GABA receptors” (2009).

Calls of active or inactive are those of the source. No cut-off for these calls is given here.

One test concerns Neuron. Kind of test: Inhibition of GABA-induced inward current in Periplaneta americana L neuron at 10 uM for 5 min by whole-cell patch clamp method. The test is classed as functional.
A further test concerns Musca domestica. Briefly: Displacement of [3H]EBOB from housefly GABA receptor.

One may read the inhibition as the relative decrease from the control value, in per cent. A lower inhibition goes with a response near the control. With `C[C@@]12NC(=O)[C@H](C[C@]13C(=O)Nc1ccccc13)n1c2nc2ccccc2c1=O`, 10 µM produced 90.3% inhibition with Neuron.

Turning to `CC(C)C[C@@]12NC(=O)[C@H](C[C@@]13C(=O)Nc1ccccc13)n1c2nc2ccccc2c1=O` (racemic), in the test with Musca domestica, the result was Active.

In the case of `CC(C)C[C@@]12NC(=O)[C@H](C[C@]13C(=O)Nc1ccccc13)n1c2nc2ccccc2c1=O` (racemic), in the test on Musca domestica, the outcome was Active.

Consider `CC(C)[C@@]12NC(=O)[C@H](C[C@@]13C(=O)Nc1ccccc13)n1c2nc2ccccc2c1=O` (racemic), for which the result in the test with Musca domestica was Active.

With `CC(C)[C@@]12NC(=O)[C@H](C[C@]13C(=O)Nc1ccccc13)n1c2nc2ccccc2c1=O` (racemic), the outcome in the test with Musca domestica was Active.

On to `CN1C(=O)[C@@H]2C[C@@]3(C(=O)N(Cc4ccccc4)c4ccccc43)[C@]1(C)c1nc3ccccc3c(=O)n12` (racemic), for which the outcome with Musca domestica was Active.

For the compound `CN1C(=O)[C@@H]2C[C@]3(C(=O)N(Cc4ccccc4)c4ccccc43)[C@]1(C)c1nc3ccccc3c(=O)n12` (racemic), the result in the test on Musca domestica was Active.

As to `CN1C(=O)[C@@H]2C[C@]3(C(=O)Nc4ccccc43)[C@]1(C)c1nc3ccccc3c(=O)n12` (racemic), the outcome in the test on Musca domestica was Active.

For the compound `CN1C(=O)[C@@H]2[C@H]3C(=O)N(c4ccccc4)C(=O)[C@H]3[C@]1(C)c1nc3ccccc3c(=O)n12` (racemic), in the test on Musca domestica, the outcome was Active.

`CN1C(=O)[C@@]2(C[C@H]3C(=O)N(C)[C@@]2(C)c2nc4ccccc4c(=O)n23)c2ccccc21` (racemic): the outcome in the test on Musca domestica was Active.

With `CN1C(=O)[C@@]2(C[C@H]3C(=O)N[C@@]2(C)c2nc4ccccc4c(=O)n23)c2ccccc21` (racemic), the result in the test on Musca domestica was Active.

As for `CN1C(=O)[C@]2(C[C@H]3C(=O)N(C)[C@@]2(C)c2nc4ccccc4c(=O)n23)c2ccccc21` (racemic), the outcome with Musca domestica was Active.

Take `CN1C(=O)[C@]2(C[C@H]3C(=O)N[C@@]2(C)c2nc4ccccc4c(=O)n23)c2ccccc21` (racemic): in the test with Musca domestica, the result was Active.

Take `C[C@@]12NC(=O)[C@H](C[C@@]13C(=O)N(Cc1ccccc1)c1ccccc13)n1c2nc2ccccc2c1=O` (racemic): the outcome in the test with Musca domestica was Active.

Regarding `C[C@@]12NC(=O)[C@H](C[C@@]13C(=O)Nc1ccc(Cl)cc13)n1c2nc2ccc(Cl)cc2c1=O` (racemic), the result with Musca domestica was Active.

With `C[C@@]12NC(=O)[C@H](C[C@@]13C(=O)Nc1ccc(Cl)cc13)n1c2nc2ccccc2c1=O` (racemic), the outcome in the test with Musca domestica was Active.

For the compound `C[C@@]12NC(=O)[C@H](C[C@@]13C(=O)Nc1ccccc13)n1c2nc2cc(Cl)ccc2c1=O` (racemic), in the test on Musca domestica, the result was Active.

For `C[C@@]12NC(=O)[C@H](C[C@@]13C(=O)Nc1ccccc13)n1c2nc2ccc(Cl)cc2c1=O` (racemic), in the test on Musca domestica, the outcome was Active.

As for `C[C@@]12NC(=O)[C@H](C[C@@]13C(=O)Nc1ccccc13)n1c2nc2ccc(F)cc2c1=O` (racemic), in the test on Musca domestica, the result was Active.

For the compound `C[C@@]12NC(=O)[C@H](C[C@@]13C(=O)Nc1ccccc13)n1c2nc2ccccc2c1=O` (racemic), in the test with Musca domestica, the result was Active.

On to `C[C@@]12NC(=O)[C@H](C[C@]13C(=O)N(Cc1ccccc1)c1ccccc13)n1c2nc2ccccc2c1=O` (racemic), for which the outcome in the test with Musca domestica was Active.

Regarding `C[C@@]12NC(=O)[C@H](C[C@]13C(=O)Nc1ccc(Cl)cc13)n1c2nc2ccc(Cl)cc2c1=O` (racemic), the outcome with Musca domestica was Active.

For the compound `C[C@@]12NC(=O)[C@H](C[C@]13C(=O)Nc1ccc(Cl)cc13)n1c2nc2ccccc2c1=O` (racemic), the result in the test on Musca domestica was Active.

For `C[C@@]12NC(=O)[C@H](C[C@]13C(=O)Nc1ccccc13)n1c2nc2cc(Cl)ccc2c1=O` (racemic), in the test with Musca domestica, the outcome was Active.

`C[C@@]12NC(=O)[C@H](C[C@]13C(=O)Nc1ccccc13)n1c2nc2ccc(Cl)cc2c1=O` (racemic): the outcome in the test on Musca domestica was Active.

For the compound `C[C@@]12NC(=O)[C@H](C[C@]13C(=O)Nc1ccccc13)n1c2nc2ccc(F)cc2c1=O` (racemic), the result in the test on Musca domestica was Active.

As for `C[C@@]12NC(=O)[C@H](C[C@]13C(=O)Nc1ccccc13)n1c2nc2ccccc2c1=O` (racemic), in the test with Musca domestica, the result was Active.

With `C[C@@]12NC(=O)[C@H]([C@H]3C(=O)N(c4ccccc4)C(=O)[C@H]31)n1c2nc2ccccc2c1=O` (racemic), the outcome with Musca domestica was Active.

Turning to `O=C1N[C@@]2(Cc3ccccc3)c3nc4ccccc4c(=O)n3[C@H]1C[C@@]21C(=O)Nc2ccccc21` (racemic), the outcome in the test with Musca domestica was Active.

As for `O=C1N[C@@]2(Cc3ccccc3)c3nc4ccccc4c(=O)n3[C@H]1C[C@]21C(=O)Nc2ccccc21` (racemic), in the test with Musca domestica, the outcome was Active.
